Patent publication US11090304B2 (Amgen Inc., priority 2018, dated 2021)

Molecular target: GDP-bound KRAS protein (aa 1-169), containing both G12C and C118A amino acid substitutions (Homo sapiens, UniProt P01116, C118A/G12C)
Assay: Coupled nucleotide exchange assay (SOS-mediated, AlphaScreen)
Format: biochemical
Conditions: 5 min compound pre-incubation

GDP-bound KRAS protein (aa 1-169), containing both G12C and C118A amino acid substitutions, sequence (P01116 1-169 isoform P01116-2 G12C/C118A): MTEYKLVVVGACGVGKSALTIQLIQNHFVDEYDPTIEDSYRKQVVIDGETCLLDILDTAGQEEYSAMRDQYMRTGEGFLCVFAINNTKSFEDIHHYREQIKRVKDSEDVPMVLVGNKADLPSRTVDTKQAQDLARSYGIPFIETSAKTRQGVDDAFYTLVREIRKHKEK

Coupled exchange IC50 (5 min)	SMILES
46.1 | nda μM	C=CC(=O)N1CCN(c2nc(=O)n(-c3c(F)cccc3F)c3nc(Cl)c(Cl)cc23)[C@@H](C)C1 [Example 60-16, 6,7-dichloro-1-(2,6-difluorophenyl)-4-((2S)-2-Methyl-4-(2-propenoyl)-1-piperazinyl)pyrido[2,3-d]pyrimidin-2(1H)-one]
16.6 | nda μM	C=CC(=O)N1C[C@@H](C)N(c2nc(=O)n(-c3c(C)ccnc3C(C)C)c3nc(-c4ccccc4F)c(Cl)cc23)[C@H](C)C1 (single isomer, unassigned) [Example 78-16]
1.15 | nda μM	C=CC(=O)N1CCN(c2nc(=O)n(-c3c(C)cccc3C(C)C)c3nc(-c4c(O)cccc4F)c(F)cc23)C(C)(C)C1 (single isomer, unassigned) [Example 63-4]
0.86 | nda μM	C=CC(=O)N1CCN(c2nc(=O)n(-c3c(C)ccnc3C(C)C)c3nc(-c4ccccc4F)c(Cl)nc23)[C@@H](C)C1 (single isomer, unassigned) [Example 111-2]
88 | nda μM	C=CC(=O)N1CCN(c2nc(=O)n(-c3c(CC)cccc3CC)c3nc(N4CC[C@@H](F)C4)c(Cl)cc23)[C@@H](C)C1 [Example 66-7, 6-chloro-1-(2,6-diethylphenyl)-7-((3R)-3-fluoro-1-pyrrolidinyl)-4-((2S)-2-methyl-4-(2-propenoyl)-1-piperazinyl)pyrido[2,3-d]pyrimidin-2(1H)-one]
16.05 | nda μM	C=CC(=O)N1CCN(c2nc(=O)n(-c3c(CC)cccc3CC)c3nc(N4CCOC[C@@H]4C)c(Cl)cc23)[C@@H](C)C1 [Example 66-30, 6-chloro-1-(2,6-diethylphenyl)-7-((3S)-3-methyl-4-morpholinyl)-4-((2S)-2-methyl-4-(2-propenoyl)-1-piperazinyl)pyrido[2,3-d]pyrimidin-2(1H)-one]
6.45 | nda μM	C=CC(=O)N1CCN(c2nc(=O)n(-c3ccccc3C(C)C)c3nc(-c4cc(C(F)(F)F)nn4C)c(Cl)cc23)[C@@H](C)C1 [Example 67-2, 6-chloro-4-((2S)-2-methyl-4-(2-propenoyl)-1-piperazinyl)-7-(1-methyl-3-(trifluoromethyl)-1H-pyrazol-5-yl)-1-(2-(2-propanyl)phenyl)pyrido[2,3-d]pyrimidin-2(1H)-one]
13.5 | nda μM	C=CC(=O)N1CCN(c2nc(=O)n(-c3c(N)cccc3C(C)C)c3nc(-c4ccccc4F)c(Cl)cc23)[C@@H](C)C1 (single isomer, unassigned) [Example 155-2]
5.51 | nda μM	C=CC(=O)N1CCN(c2nc(=O)n(-c3c(CC)cccc3CC)c3nc(N4CCC(F)(F)C4)c(Cl)cc23)[C@@H](C)C1 [Example 66-14, 6-chloro-1-(2,6-diethylphenyl)-7-(3,3-difluoro-1-pyrrolidinyl)-4-((2S)-2-methyl-4-(2-propenoyl)-1-piperazinyl)pyrido[2,3-d]pyrimidin-2(1H)-one]
14.1 | nda μM	C=CC(=O)N1CCN(c2nc(=O)c(-c3ccccc3C(C)C)c3cc(-c4ccccc4F)c(C)nn23)CC1 [Example 81-2, 3-(2-fluorophenyl)-2-methyl-5-(2-(2-propanyl)phenyl)-8-(4-(2-propenoyl)-1-piperazinyl)-6H-pyrimido[1,6-b]pyridazin-6-one]
65 | nda μM	C=CC(=O)N1CCN(c2nc(=O)n(-c3c(CC)cccc3CC)c3nc(N4CCC(CC(C)C)C4)c(Cl)cc23)[C@@H](C)C1 (stereo partly drawn) [Example 66-12, 6-chloro-1-(2,6-diethylphenyl)-4-((2S)-2-methyl-4-(2-propenoyl)-1-piperazinyl)-7-(3-(2-methylpropyl)-1-pyrrolidinyl)pyrido[2,3-d]pyrimidin-2(1H)-one]
23.9 | nda μM	C=CC(=O)N1CCN(c2nc(=O)n(-c3c(C(N)=O)cccc3C(C)C)c3nc(-c4ccccc4F)c(Cl)cc23)[C@@H](C)C1 (single isomer, unassigned) [Example 142-1]
20.1 | nda μM	C=CC(=O)N1CC(N(C)c2nc(=O)n(-c3c(C)ccnc3C(C)C)c3nc(-c4ccccc4F)c(Cl)cc23)C1 [76-2]

Second part, the compound before the results:

SMILES	Coupled exchange IC50 (5 min)
C=CC(=O)N1CCN(c2nc(=O)n(-c3ccccc3C(C)C)c3nc(-c4ccccc4F)c(F)cc23)[C@@H](C)C1 (single isomer, unassigned) [Example 57-7-1]	8.89 | nda μM
C=CC(=O)N1CCN(c2nc(=O)n(-c3ccccc3C(C)C)c3nc(-c4cccs4)c(Cl)cc23)[C@@H](C)C1 (single isomer, unassigned) [Example 67-4-2]	1.91 | nda μM
C=CC(=O)N1CCN(c2nc(=O)n(-c3c(C)cccc3CC)c3nc(-c4c(O)cccc4F)c(F)cc23)[C@@H](C)C1 (single isomer, unassigned) [Example 57-14-2]	1.8 | nda μM
C=CC(=O)N1CCN(c2nc(=O)n(-c3c(C4CC4)ccnc3C)c3nc(-c4ccccc4F)c(F)cc23)[C@@H](C)C1 (single isomer, unassigned) [Example 58-20-1]	16.2 | nda μM
C=CC(=O)N1CCN(c2nc(=O)n(-c3ccccc3C3(C(F)(F)F)CC3)c3nc(-c4c(O)cccc4F)c(F)cc23)[C@@H](C)C1 [Example 59-1, 6-Fluoro-7-(2-fluoro-6-hydroxyphenyl)-4-((2S)-2-methyl-4-(2-propenoyl)-1-piperazinyl)-1-(2-(1-(trifluoromethyl)cyclopropyl)phenyl)pyrido[2,3-d]pyrimidin-2(1H)-one]	2.98 | nda μM
C=CC(=O)N1CCN(c2nc(=O)n(-c3c(CC)cccc3CC)c3nc(-c4cccnc4C)c(Cl)cc23)[C@@H](C)C1 [Example 55-29, 6-chloro-1-(2,6-diethylphenyl)-4-((2S)-2-methyl-4-(2-propenoyl)-1-piperazinyl)-7-(2-methyl-3-pyridinyl)pyrido[2,3-d]pyrimidin-2(1H)-one]	7.19 | nda μM
C=CC(=O)N1CCN(c2nc(=O)n(-c3c(C)cccc3C(C)C)c3nc(-c4cc(Cl)ccc4O)c(F)cc23)[C@@H](C)C1 (single isomer, unassigned) [Example 113]	1.02 | nda μM
C=CC(=O)N1CCN(c2nc(=O)n(-c3ccccc3C(C)C)c3nc(-c4cc(OC(F)F)ccc4F)c(Cl)cc23)[C@@H](C)C1 (single isomer, unassigned) [Example 54-51-2]	1.84 | nda μM
C=CC(=O)N1CCN(c2nc(=O)n(-c3ccccc3C#N)c3nc(-c4c(O)cccc4F)c(Cl)cc23)[C@@H](C)C1 [Example 54-58, 2-(6-chloro-7-(2-fluoro-6-hydroxyphenyl)-4-((2S)-2-methyl-4-(2-propenoyl)-1-piperazinyl)-2-oxopyrido[2,3-d]pyrimidin-1(2H)-yl)benzonitrile]	3.44 | nda μM
C=CC(=O)N1CCN(c2cc(=O)n(CC(C)(C)C)c3nc(-c4ccccc4F)c(Cl)cc23)CC1 [Example 122, 6-Chloro-1-(2,2-dimethylpropyl)-7-(2-fluorophenyl)-4-(4-(2-propenoyl)-1-piperazinyl)-1,8-naphthyridin-2(1H)-one]	5.29 | nda μM
C=CC(=O)N1CCN(c2nc(=O)n(-c3c(C)ccnc3C(C)C)c3nc(-c4ccccc4F)c(C)nc23)[C@@H](C)C1 [Example 143, 7-(2-Fluorophenyl)-6-methyl-1-(4-methyl-2-(2-propanyl)-3-pyridinyl)-4-((2S)-2-methyl-4-(2-propenoyl)-1-piperazinyl)-2(1H)-pteridinone]	0.497 | nda μM
C=CC(=O)N1CCN(c2nc(=O)[nH]c3nc(-c4c(O)cccc4F)c(Cl)cc23)[C@@H](C)C1 [Example 119, 6-Chloro-7-(2-fluoro-6-hydroxyphenyl)-4-((2S)-2-methyl-4-(2-propenoyl)-1-piperazinyl)pyrido[2,3-d]pyrimidin-2(1H)-one]	10.8 | nda μM
C=CC(=O)N1CCN(c2nc(=O)n(-c3ccccc3C(C)C)c3nc(N4CCCCC4)c(Cl)cc23)[C@@H](C)C1 (single isomer, unassigned) [Example 69-1-1]	44.1 | nda μM
C=CC(=O)N1C[C@@H]2C[C@H]1CN2c1nc(=O)n(-c2ccccc2C(C)C)c2nc(-c3c(O)cccc3F)c(Cl)cc12 [Example 54-50, 4-((1S,4S)-5-acryloyl-2,5-diazabicyclo [2.2.1]heptan-2-yl)-6-chloro-7-(2-fluoro-6-hydroxyphenyl)-1-(2-isopropylphenyl) pyrido [2,3-d]pyrimidin-2(1H)-one]	88.8 | nda μM
C=CC(=O)N1CCN(c2nc(=O)n(-c3c(C)ccnc3N(C)C)c3nc(-c4ccccc4F)c(Cl)cc23)[C@@H](C)C1 (single isomer, unassigned) [Example 55-7-1]	0.863 | nda μM
C=CC(=O)N1CCN(c2nc(=O)n(-c3c(C)cccc3CC)c3nc(-c4ccccc4F)c(F)cc23)[C@@H](C)C1 (single isomer, unassigned) [Example 57-13-1]	1.46 | nda μM
C=CC(=O)N1CCN(c2nc(=O)n(-c3c(C)ccnc3N(C)C)c3nc(-c4ccccc4F)c(Cl)cc23)[C@@H](C)C1 [Example 55-7]	0.806 | nda μM
C=CC(=O)N1CCN(c2nc(=O)n(C)c3nc(-c4ccccc4F)c(Cl)cc23)[C@@H](C)C1 [Example 55-33, 6-chloro-7-(2-fluorophenyl)-1-methyl-4-((2S)-2-methyl-4-(2-propenoyl)-1-piperazinyl)pyrido[2,3-d]pyrimidin-2(1H)-one]	45.8 | nda μM
C=CC(=O)N1CCN(c2nc(=O)n(-c3ccccc3C(C)(C)C)c3nc(-c4ccccc4F)c(F)cc23)[C@@H](C)C1 (single isomer, unassigned) [Example 58-17-1]	33.2 | nda μM
C=CC(=O)N1CCN(c2nc(=O)n(-c3c(C)ncnc3C(C)C)c3nc(-c4cc(C)ccc4F)c(Cl)cc23)[C@@H](C)C1 (single isomer, unassigned) [Example 55-40-1]	1.02 | nda μM
